Measurements published in ChEMBL document CHEMBL1201862, “PubChem BioAssay data set” (2004).
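A five-concentration, 48-hour dose response in 96-well plates underlies each endpoint, interpolated linearly between surrounding concentrations. Here, GI50 denotes the concentration required for 50% inhibition of growth.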 The source made the active and inactive calls. Cut-off read from the data, not from the text of the source: active = GI50 up to about 1.1 µM and inactive = higher.

How the values were obtained:
Test in all cases: growth of human tumour cells (NCI), 48 h
COLO 205 = test system: COLO 205
OVCAR-4 = test system: OVCAR-4
SN12C = test system: SN12C
SNB-19 = test system: SNB-19
Malme-3M = test system: Malme-3M
HT-29 = test system: HT-29
CAKI-1 = test system: CAKI-1
KM12 = test system: KM12
NCI-H460 = test system: NCI-H460
MCF7 = test system: MCF7
K562 = test system: K562
T47D = test system: T47D
SK-MEL-28 = test system: SK-MEL-28
SK-MEL-5 = test system: SK-MEL-5
HCT-116 = test system: HCT-116
MOLT-4 = test system: MOLT-4
LOX IMVI = test system: LOX IMVI
SNB-75 = test system: SNB-75
SR = test system: SR
EKVX = test system: EKVX

| SMILES | GI50 (COLO 205) | GI50 (OVCAR-4) | GI50 (SN12C) | GI50 (SNB-19) | GI50 (Malme-3M) | GI50 (HT-29) | GI50 (CAKI-1) | GI50 (KM12) | GI50 (NCI-H460) | GI50 (MCF7) | GI50 (K562) | GI50 (T47D) | GI50 (SK-MEL-28) | GI50 (SK-MEL-5) | GI50 (HCT-116) | GI50 (MOLT-4) | GI50 (LOX IMVI) | GI50 (SNB-75) | GI50 (SR) | GI50 (EKVX) |
| --- | --- | --- | --- | --- | --- | --- | --- | --- | --- | --- | --- | --- | --- | --- | --- | --- | --- | --- | --- | --- |
| CNC(=O)CCCNC(=O)CCCCC(=O)N(C)C | > 100 µM (inactive) | > 100 µM (inactive) | > 100 µM (inactive) | > 100 µM (inactive) | > 100 µM (inactive) | > 100 µM (inactive) | > 100 µM (inactive) | > 100 µM (inactive) | > 100 µM (inactive) | > 100 µM (inactive) | > 100 µM (inactive) | > 100 µM (inactive) | > 100 µM (inactive) | > 100 µM (inactive) | > 100 µM (inactive) | 89.5 µM (inactive) |  |  |  |  |
| COc1cccc(C2CC(=O)c3cccn32)c1 (stereo not drawn) | > 100 µM (inactive) | > 100 µM (inactive) | > 100 µM (inactive) | > 100 µM (inactive) |  | > 100 µM (inactive) | > 100 µM (inactive) | > 100 µM (inactive) |  | > 100 µM (inactive) | > 100 µM (inactive) | 50.2 µM (inactive) | > 100 µM (inactive) |  | > 100 µM (inactive) | 71.8 µM (inactive) | > 100 µM (inactive) | > 100 µM (inactive) | > 100 µM (inactive) | > 100 µM (inactive) |
| CCCC(CCC(N)=O)(CCC(N)=O)[N+](=O)[O-] | > 100 µM (inactive) |  | > 100 µM (inactive) | > 100 µM (inactive) | > 100 µM (inactive) | > 100 µM (inactive) | > 100 µM (inactive) | > 100 µM (inactive) | > 100 µM (inactive) | > 100 µM (inactive) | > 100 µM (inactive) | > 100 µM (inactive) |  | > 100 µM (inactive) | > 100 µM (inactive) | > 100 µM (inactive) |  | > 100 µM (inactive) | > 100 µM (inactive) | > 100 µM (inactive) |
| CCOc1c(Br)cc(Br)cc1C=C(C#N)C#N | > 10 µM (inactive) | > 10 µM (inactive) | 6.27 µM (inactive) | 5.73 µM (inactive) | > 10 µM (inactive) | > 10 µM (inactive) |  | 5.93 µM (inactive) | > 10 µM (inactive) | 6.21 µM (inactive) | 1.16 µM (inactive) | > 10 µM (inactive) | 8.26 µM (inactive) | 3.61 µM (inactive) | 0.405 µM (active) | 2.05 µM (inactive) | 1.66 µM (inactive) | 7.62 µM (inactive) | 0.916 µM (active) | > 10 µM (inactive) |
| CC[C@@H]1CC[C@@H]2[C@H](CC[C@]3(C)[C@@H](OC(C)=O)CC[C@@H]23)[C@H]1C(=O)OC | 16 µM (inactive) | 19.9 µM (inactive) | 25.2 µM (inactive) | 25.4 µM (inactive) | 17.3 µM (inactive) | 25 µM (inactive) | 35.3 µM (inactive) | 22.5 µM (inactive) | 23 µM (inactive) | 25 µM (inactive) | 20 µM (inactive) | 21.8 µM (inactive) | 32.2 µM (inactive) | 14.6 µM (inactive) | 17.9 µM (inactive) | 19.5 µM (inactive) | 20 µM (inactive) | 22.3 µM (inactive) |  | 25.2 µM (inactive) |
| O=C1N/C(=N/N=C/c2c[nH]c3ccccc23)N/C1=C\c1c[nH]c2ccccc12 | 13.8 µM (inactive) | 26.9 µM (inactive) | 34.9 µM (inactive) | 69.7 µM (inactive) | 15.5 µM (inactive) | 23.1 µM (inactive) | 31 µM (inactive) | 21 µM (inactive) | 36.8 µM (inactive) | 16 µM (inactive) | 14.7 µM (inactive) | 17.5 µM (inactive) | 22.1 µM (inactive) | 19.6 µM (inactive) | 19.1 µM (inactive) | 10.5 µM (inactive) | 17.4 µM (inactive) | 28.6 µM (inactive) |  | 25.6 µM (inactive) |
| CCC(=O)O[C@H]1CC[C@H]2[C@@H]3CCC4=C/C(=N/OC(=O)c5cccc6c(=O)c7ccccc7[nH]c56)CC[C@]4(C)[C@H]3CC[C@]12C | 32.3 µM (inactive) | 38.2 µM (inactive) | 42.9 µM (inactive) | 51.4 µM (inactive) |  | 27.3 µM (inactive) |  | 22.9 µM (inactive) | 22.2 µM (inactive) | 20.9 µM (inactive) | 18 µM (inactive) | 29.9 µM (inactive) | 28.7 µM (inactive) | 22.8 µM (inactive) |  | 17.9 µM (inactive) | 23.3 µM (inactive) | 54.6 µM (inactive) | 29.8 µM (inactive) | 8.53 µM (inactive) |
| COc1cc(C2c3cc4c(cc3OC(NNS(=O)(=O)c3ccc(C)cc3)C2C)OCO4)cc(OC)c1O (stereo not drawn) | 19.2 µM (inactive) | 6.32 µM (inactive) | 19 µM (inactive) | 16.2 µM (inactive) | 5.85 µM (inactive) | 23.4 µM (inactive) | 12.8 µM (inactive) | 8.81 µM (inactive) | 5.85 µM (inactive) | 6.24 µM (inactive) | 4.61 µM (inactive) | 10.1 µM (inactive) | 28.9 µM (inactive) | 9.75 µM (inactive) | 9.44 µM (inactive) | 2.52 µM (inactive) | 12 µM (inactive) | 3.61 µM (inactive) |  | 11.7 µM (inactive) |
